Measurements reported in patent US5516651A, “Nucleic acids encoding calcitonin receptor and uses thereof” (The General Hospital Corporation, priority 1991, dated 1996).
Numbering of substitutions follows the chain as printed.

Assays:
[1] = biological target: T1, calcitonin binding sites of BIN-67 cells (Homo sapiens, UniProt P30988); assay: Radioligand binding of salmon and human calcitonin to BIN-67 cells; details: for displacement of radiolabeled salmon or human calcitonin binding: concentrations as high as 10^-5 M
T1 construct: native BIN-67 cells (0.42 nM); endogenous in cells; host or cells: BIN-67 (human ovarian small cell carcinoma)
T1 sequence (P30988 25-490 isoform P30988-1 limits assumed): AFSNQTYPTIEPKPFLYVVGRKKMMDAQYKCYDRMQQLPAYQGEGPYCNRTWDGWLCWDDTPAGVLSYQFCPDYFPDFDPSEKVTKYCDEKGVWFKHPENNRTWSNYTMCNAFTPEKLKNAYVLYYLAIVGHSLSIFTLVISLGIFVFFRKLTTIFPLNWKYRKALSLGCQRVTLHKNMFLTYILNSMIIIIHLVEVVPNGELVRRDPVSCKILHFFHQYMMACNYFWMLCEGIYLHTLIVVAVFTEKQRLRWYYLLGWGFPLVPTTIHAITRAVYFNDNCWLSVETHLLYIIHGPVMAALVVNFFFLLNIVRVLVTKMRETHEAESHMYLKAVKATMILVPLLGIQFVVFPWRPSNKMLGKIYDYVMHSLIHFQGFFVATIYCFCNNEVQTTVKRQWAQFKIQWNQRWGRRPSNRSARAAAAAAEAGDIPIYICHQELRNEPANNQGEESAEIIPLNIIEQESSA
Protocol: (§1) Human small ovarian cell carcinoma cells (BIN-67) were grown in 10 cm petri dishes in Dulbecco's modified Eagle's medium (DMEM) supplemented with 20% (vol/vol) heat inactivated fetal calf serum (GIBCO) and enriched with 25% Ham's F12 medium (GIBCO). Cells at near confluency, were passed approximately twice a week by trypsinization using 0.25% trypsin (GIBCO). Radioligand binding assays were performed in triplicate as follows. The cells were washed, trypsinized and counted in an automated cell counter (Coulter, Hialeah, Fla.). […] The mixture was incubated for 14-16 hours at 4° C. The cells were washed by layering 100 μl of cell suspension over 400 μl of 10% sucrose (wt/vol) in a mini-microfuge tube (Bio-Rad) and centrifuging at maximum speed in a microfuge for three minutes to pellet the cells. The supernatant was removed by aspiration, and the portion of the tube containing the cell pellet was cut off and assayed for radioactive content in a gamma counter (TM Analytic, Elk Grove Village, Ill.). Ligand binding to COS-M6 cells transfected with a human CTR-containing plasmid was performed using the same technique.

[2] = tested on: BIN-67 cells; assay: cAMP assay in BIN-67 cells; format: cell-based, human; details: read-out: 50% maximal effective concentration (EC50) for cAMP increase
Protocol: (§2) BIN-67 cells or COS-M6 cells were grown in 10 cm petri dishes. Forty eight hours before the cAMP assay, the COS-M6 cells were transfected with either human CTR cDNA, or with β-galactosidase cDNA which served as a control. After 24 hours, the transfected COS-M6 cells and the BIN-67 cells were trypsinized and transferred to plastic trays containing 24 16 mm wells (Falcon) at an initial plating density of 5×10^4 cells/well. To test for hormone-induced cAMP responses, the medium was removed from each well and the cells were washed with PBS supplemented with calcium and magnesium. Triplicate groups of cells were incubated for 20 minutes at 37° C. at room temperature with either test buffer [PBS supplemented with calcium, magnesium, 0.25% bovine serum albumin, 11 mM glucose and 1 mM 3-isobutyl-methyl-xanthine (IBMX)], or with 4 mM isoproterenol or peptide hormone at the appropriate concentrations. Reactions were stopped by placing the culture plates in a water bath at 100° C. until all liquid had evaporated. The plates were stored at -20° C. until assayed. The cAMP assay was performed by adding 1.0 ml of 50 mM sodium acetate buffer, pH 6.2, to each well. Dried cells were scraped into this buffer, transferred to glass tubes and centrifuged at 500×g for 10 minutes. […]

[3] = biological target: T2, porcine calcitonin receptor (CTR) (Sus scrofa, UniProt P25117); assay: Radioiodinated salmon calcitonin binding to COS cells transfected with porcine CTR cDNA
T2 construct: expressed in transfected cells; host or cells: COS cells
T2 sequence (P25117 30-482 isoform P25117-2 K186L): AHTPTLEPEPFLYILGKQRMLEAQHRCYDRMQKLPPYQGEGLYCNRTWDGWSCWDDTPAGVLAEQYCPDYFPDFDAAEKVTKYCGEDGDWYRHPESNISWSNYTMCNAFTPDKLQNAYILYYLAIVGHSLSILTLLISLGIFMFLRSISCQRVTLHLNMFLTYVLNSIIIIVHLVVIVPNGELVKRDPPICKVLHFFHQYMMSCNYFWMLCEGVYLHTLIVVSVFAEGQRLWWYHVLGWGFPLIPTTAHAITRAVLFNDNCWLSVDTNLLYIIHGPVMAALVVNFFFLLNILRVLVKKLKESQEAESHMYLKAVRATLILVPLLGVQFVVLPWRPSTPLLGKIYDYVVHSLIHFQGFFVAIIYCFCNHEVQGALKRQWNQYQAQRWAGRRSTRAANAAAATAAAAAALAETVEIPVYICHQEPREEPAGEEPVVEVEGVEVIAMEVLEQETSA
Text: (§3) Radioiodinated salmon calcitonin binds to LLC-PK1 cells and to COS cells transfected with the cloned porcine calcitonin receptor (CTR) cDNA (FIGS. 1A and 1B). […] Bovine parathyroid hormone (1-34) [PTH(1-34)]

[4] = biological target: T3, human CTR (Homo sapiens, UniProt P30988, L447P/S166F); assay: Radioligand binding to COS-M6 cells transfected with human CTR cDNA; details: for competition for binding with radioiodinated salmon or human calcitonin: COS cells transfected with human CTR cDNA
T3 construct: expressed in transfected cells; host or cells: COS-M6 (COS-7 subclone)
T3 sequence (P30988 25-490 isoform P30988-1 S166F/L463P): T1 sequence (P30988 25-490 isoform P30988-1 limits assumed) with S142F, L439P
Protocol: as §1

[5] = biological target: T3, human CTR; assay: cAMP assay in COS-M6 cells transfected with human CTR cDNA; format: cell-based
Protocol: Plasmid DNA was used to transfect COS-M6 cells growing in 10 cm petri dishes (Falcon, Lincoln Park, N.J.) using the DEAE-dextran/chloroquine procedure (Seed and Aruffo, 1987, Proc. Natl. Acad. Sci. USA 84:3365). Forty-eight hours after transfection, cells were incubated in the presence of either iodinated calcitonin for ligand binding studies, or unlabeled calcitonin for the assay of intracellular cAMP.
(§4) BIN-67 cells or COS-M6 cells were grown in 10 cm petri dishes. Forty eight hours before the cAMP assay, the COS-M6 cells were transfected with either human CTR cDNA, or with β-galactosidase cDNA which served as a control. After 24 hours, the transfected COS-M6 cells and the BIN-67 cells were trypsinized and transferred to plastic trays containing 24 16 mm wells (Falcon) at an initial plating density of 5×10^4 cells/well. To test for hormone-induced cAMP responses, the medium was removed from each well and the cells were washed with PBS supplemented with calcium and magnesium. Triplicate groups of cells were incubated for 20 minutes at 37° C. at room temperature with either test buffer [PBS supplemented with calcium, magnesium, 0.25% bovine serum albumin, 11 mM glucose and 1 mM 3-isobutyl-methyl-xanthine (IBMX)], or with 4 mM isoproterenol or peptide hormone at the appropriate concentrations. Reactions were stopped by placing the culture plates in a water bath at 100° C. until all liquid had evaporated. The plates were stored at -20° C. until assayed. The cAMP assay was performed by adding 1.0 ml of 50 mM sodium acetate buffer, pH 6.2, to each well. Dried cells were scraped into this buffer, transferred to glass tubes and centrifuged at 500×g for 10 minutes. Aliquots of supernatant were assayed for cAMP using a radioimmunoassay kit (New England Nuclear/Dupont cAMP [^125 I] Radioimmunoassay Kit, Dupont).

[6] = biological target: T2, porcine calcitonin receptor (CTR); format: cell-based
Protocol: (§5) The cloned porcine receptor is functionally coupled to increased intracellular cAMP (FIGS. 2A and 2B). A 4-fold increase in the concentration of intracellular cAMP was observed after incubation of porcine CTR-transfected COS cells with calcitonin, but there was no increase when cells were transfected with β-galactosidase and subsequently stimulated with calcitonin.
as §2, with “evaporated.” for “evaporated. The plates were stored at -20° C. until assayed. The cAMP assay was performed by adding 1.0 ml of 50 mM sodium acetate buffer, pH 6.2, to each well. Dried cells were scraped into this buffer, transferred to glass tubes and centrifuged at 500×g for 10 minutes.”

[7] = tested on: β-galactosidase transfected COS cells; assay: cAMP response in mock (β-galactosidase) transfected COS cells; format: cell-based; details: for activation of adenylate cyclase / increase of cAMP levels: β-galactosidase (mock) transfected COS cells; for increase in cAMP after stimulation with calcitonin: COS cells transfected with β-galactosidase
Protocol: as §5, §4

[8] = biological target: T4, calcitonin receptors of LLC-PK1 cells (Sus scrofa, UniProt P25117); assay: Radioiodinated calcitonin binding to LLC-PK1 cells (Scatchard); set-up: species or system porcine; details: FIG. 1A, read-out: apparent dissociation constant (Kd)
T4 construct: endogenous in cells; host or cells: LLC-PK1
T4 sequence (P25117 30-482 isoform P25117-2 limits assumed): T2 sequence (P25117 30-482 isoform P25117-2 K186L) with L157K
Text: The porcine calcitonin receptor was cloned by expression in COS cells, using a strategy generally described in Lin et al., 1991, Proc. Natl. Acad. Sci. USA 88:3185. […] Pools of mini-prep cDNA (Sambrook et al., 1989, Molecular Cloning: A Laboratory Manual, Cold Spring Harbor Laboratory, N.Y.) containing 10^4 recombinants were transfected into COS cells and screened for binding to radioiodinated salmon calcitonin by emulsion autoradiography (Gearing et al., 1989, EMBO 8:3667). After screening 30 pools representing 3×10^5 clones, two positive pools were identified from which two positive clones with cDNA inserts 2.2 and 3.9 kb in length were isolated. The 2.2 kb clone (3JS-14-FI) was a truncated version of the 3.9 kb clone (2B5-0-I) but encoded the same open reading frame.
as §3

[9] = biological target: T5, calcitonin receptors of BIN-67 cells (Homo sapiens, UniProt P30988); assay: Emulsion autoradiography of BIN-67 cells with [125I]-salmon calcitonin; format: binding
T5 construct: native BIN-67 cells (0.42 nM); endogenous in cells; host or cells: BIN-67 (human ovarian small cell carcinoma)
T5 sequence (P30988 25-490 isoform P30988-1 limits assumed): T1 sequence (P30988 25-490 isoform P30988-1 limits assumed)
Protocol: Cells were grown on glass chamber slides (Nunc, Kamstrup, DK). The medium was removed by aspiration and the cells were incubated in binding buffer (PBS supplemented with 11 mM glucose, 0.5% bovine serum albumin) with [^125 I]-salmon calcitonin (200 pM) with or without 10^-6 M unlabeled salmon calcitonin (Sigma). After 5 washes in ice cold PBS supplemented with calcium and magnesium, the cells were fixed in PBS plus 2% formaldehyde, coated with Kodak NTB2 emulsion and exposed for 1-3 weeks at 4° C., after which they were developed and counterstained with Giemsa.

**Q.** human calcitonin was tested. Which maximal binding ([1]; human calcitonin binding to BIN-67 cells, FIG. 6C) did it give?
**A.** The maximal binding was 1.92×10^4 cpm per sample.

**Q.** What about the EC50 [2] of the same compound?
**A.** The EC50 was about 3 nM.

**Q.** Which results are given for Bovine parathyroid hormone (1-34) [PTH]?
**A.** competition for binding of radioiodinated salmon calcitonin ([3]; porcine CTR transfectants): did not compete; displacement of radiolabeled salmon or human calcitonin binding ([1]; BIN-67 cells): failed to displace; competition for binding with radioiodinated salmon or human calcitonin [4]: failure of other hormones, including PTH or secretin, to compete for binding; cAMP response ([5]; FIG. 7C): failure of PTH to induce a response

**Q.** For CC(C)NCC(O)c1ccc(O)c(O)c1 (stereo not drawn) [isoproterenol], which “activation of adenylate cyclase” value ([6]; porcine CTR-transfected cells) is on record?
**A.** Its value is “activated adenylate cyclase”.

**Q.** What about the “activation of adenylate cyclase / increase of cAMP levels” value [7] of the same compound?
**A.** The value was “increased cAMP levels”.

**Q.** What about the “activation of adenylate cyclase / increase of cAMP levels” value ([7]; listed as Isoproterenol) of the same compound?
**A.** The value was “activated adenylate cyclase”.

**Q.** What about the cAMP response ([5]; FIG. 7C) of the same compound?
**A.** Its cAMP response is “increased cAMP levels”.

**Q.** Which results are given for secretin?
**A.** displacement of radiolabeled salmon or human calcitonin binding ([1]; BIN-67 cells): failed to displace; competition for binding with radioiodinated salmon or human calcitonin [4]: failure of other hormones, including PTH or secretin, to compete for binding; cAMP response ([5]; concentrations up to 10^-6 M): failed to induce a response

**Q.** What does the source list for salmon calcitonin?
**A.** Kd [8]: ~3 nM; Kd ([3]; COS cells transfected with porcine CTR cDNA, FIG. 1B, read-out: apparent Kd): ~6 nM; increase in concentration of intracellular cAMP ([6]; cos cells, 20 min): 4 fold; increase in cAMP after stimulation with calcitonin [7]: failed to increase cAMP levels above control levels; increase in cAMP after stimulation with calcitonin ([7]; listed as calcitonin): no increase; Kd ([1]; BIN-67 cells, radiolabeled ligand, 4° C., read-out: Kd (Scatchard analysis)): 0.42 nM; IC50 ([1]; read-out: apparent 50% inhibitory concentration (IC50), BIN-67 cells, [125I]human calcitonin competed with unlabeled ligand): 0.6 to 0.7 nM; Kd ([4]; COS-M6 cells transfected with HCTR-BIN67, read-out: apparent Kd (Scatchard analysis)): 0.44 nM; EC50 [2]: ~0.7 nM; increase in cAMP levels ([5]; maximal stimulatory concentrations, 20 minutes, IBMX, FIG. 7C): ~4 fold; competition of [125I]-salmon calcitonin label by excess unlabeled ligand [9]: competed out all of the label
